Measurements from patent US12583889B2, “Cell penetrating peptides” (Oxford University Innovation Limited, priority 2017, dated 2026).
Marks after values point to notes of the source that are not given here.

Tests used:
[1] = system: human SMN2-gene; assay: Full-length SMN2 transcript qPCR in tissues of adult SMA mice after intravenous peptide-PMO conjugate; type: in vivo
Description: Smn1tm1Hung/wt; […]; […] Tissues were harvested one week post administration. […] Statistical significance determined by Student'[…]≤0.00005. […] ID NO.151), Exons 7-8 Rev: [NT] ID NO.152). […] [NT] ID NO.154). […] PolJ Forward: [NT] ID NO.155); PolJ Reverse: [NT]

[2] = Urinary kidney toxicity markers KIM-1 and NGAL by ELISA after a single IV dose of peptide-PMO conjugate; type: in vivo; conditions: 25 mg/kg single IV dose, C57/BL10 female mice
Description: Urinary and serum markers of kidney and liver toxicity were measured following a single dose administration of saline or the relevant peptide-PMO conjugate to 8 week old adult C57/BL10 female mice (N=6 per group). A bolus IV (tail vein) injection was administered and urine collected Day 2 and Day 7 after administration. Animals were then scarified prior to necropsy in which kidney, liver, diaphragm, heart, TA, gastric and serum were collected. Urine clinical indicators: KIM-1, NGAL were measured by ELISA (R&D cat #MKM100) with samples diluted to fit within standard curve. Values were normalised to urinary creatinine levels (Harwell) to account for urine protein concentration.
Group 2—25 mg/kg Pip8b4-PMO SMN
Group 3—25 mg/kg DPEP5.17-PMO SMN

[3] = adult SMA mice, 2x15 mg/kg IV approx. 48 hours apart, tissue 7 days post final administration, normalised to saline treated controls, Central Nervous System
[4] = adult SMA mice, 2x15 mg/kg IV approx. 48 hours apart, tissue 7 days post final administration, normalised to saline treated controls, spinal cord

In the case of Ac-RXRRBRR FS*RBRXR-B [Peptide 17], the “activity in cerebellum and cortex compared with peptide 6” value ([1]; FIG. 7, 2x15 mg/kg IV 48 hours apart, adult intermediate SMA mice) is reported as “equivalent or improved activity”, the “level of full length transcript (FLSMN) in all tissues” value ([1]; FIG. 7, 2x15 mg/kg IV 48 hours apart, adult intermediate SMA mice, central spinal cord, peripheral skeletal muscle and liver) is reported as over 1 fold and the “cell penetration in several compartments of the central nervous system and the skeletal muscle compared with currently available peptides 1-7” value ([1]; Table 3 data) is reported as “increased”. For the same substance, the “full-length SMN2 transcripts, mean expression level, Brainstem” value [1, 3] was 1.2, the “full-length SMN2 transcripts, mean expression level, Cerebellum” value [1, 3] was 1.19* and the “full-length SMN2 transcripts, mean expression level, Cortex” value [1, 3] was 1.27*. The “full-length SMN2 transcripts, mean expression level, Liver” value ([1]; adult SMA mice, 2x15 mg/kg IV approx. 48 hours apart, tissue 7 days post final administration, normalised to saline treated controls, Off Target) was 3.78, the “full-length SMN2 transcripts, mean expression level, Gastroc” value ([1]; adult SMA mice, 2x15 mg/kg IV approx. 48 hours apart, tissue 7 days post final administration, normalised to saline treated controls, Skeletal Muscle (gastrocnemius)) was 3.25**** and the “full-length SMN2 transcripts, mean expression level, Quad” value ([1]; adult SMA mice, 2x15 mg/kg IV approx. 48 hours apart, tissue 7 days post final administration, normalised to saline treated controls, Skeletal Muscle (quadriceps)) was 2.68***. The “full-length SMN2 transcripts, mean expression level, TA” value ([1]; adult SMA mice, 2x15 mg/kg IV approx. 48 hours apart, tissue 7 days post final administration, normalised to saline treated controls, Skeletal Muscle (tibialis anterior)) was 3.00***, the “full-length SMN2 transcripts, mean expression level, Cervical” value [1, 4] was 1.41* and the “full-length SMN2 transcripts, mean expression level, Lumbar” value [1, 4] was 1.1. For the same substance, the “full-length SMN2 transcripts, mean expression level, Thoracic” value [1, 4] was 1.39**, the “increase in cell penetration / exon inclusion compared with the currently available peptide conjugated to the same antisense oligonucleotide” value ([1]; in vivo, Table 3 data, peptide 17 versus peptide 6, peptide 14 versus peptide 2) was “up to 60.2%” and the “urinary KIM-1 level normalised to creatinine, compared with peptide 6” value ([2]; 2 days after administration) was “far lower”. For the same substance, the “urinary KIM-1 level normalised to creatinine, compared with peptide 6” value ([2]; 7 days post administration) was “lower” and the “urinary NGAL level normalised to creatinine, compared with peptide 6” value ([2]; 7 days post administration) was “lower”.
